{
  "source": "patent US20130210779A1",
  "about": "“METHOD OF IDENTIFYING TRIPLE NEGATIVE BREAST CANCER” (The Washington University, priority 2012, published 2013)",
  "key": {"[1]": {"test_system": "BOGA cells", "assay": "Western blot of protein levels in BOGA cells after treatment", "format": "cell-based", "description": "MCF7 cells were a gift from J. Weber (Washington University, St. Louis, Mo.). Cells were maintained in DMEM (Cellgro) supplemented with 10% fetal bovine serum (Sigma-Aldrich), antibiotics, and antimycotics. Cells transduced with short hairpin RNAs (shRNAs) were maintained in selection media containing 0.5 mg/mL Geneticin G418 (Gibco) or 2 μg/mL puromycin (Invitrogen).\nCells were lysed in RIPA buffer (50 mM Tris-HCl pH 8.0, 150 mM NaCl, 1% NP-40, 0.5% sodium deoxycholate, 0.5% SDS) supplemented with PMSF, protease inhibitors, and DTT. Following sonication, 120 μg of total cell lysate was loaded into 4%-15% Tris-Gly gradient gels. Protein detection was carried out with the following antibodies: BRCA1 (sc-6954, Santa Cruz), 53BP1 (NB100-304, Novus Biologicals), cathepsin L (sc-6498, Santa Cruz), p107 (sc-318, Santa Cruz), RAD51 (sc-8349, Santa Cruz), RPA (NA18, Calbiochem), and β-Tubulin (T8328, Sigma-Aldrich).\n(§1) Aliquots of 1 nmol calcitriol were resuspended in 1 mL of bovine growth serum (BGS) and diluted in DMEM with antibiotics and antimycotics to a final concentration of 10% BGS. BGS was used as the vehicle in control media. Treatment was carried out for 24 hours unless indicated otherwise.\n(§2) Cells were incubated with the broad spectrum cathepsin inhibitor E-64 (E3132, Sigma-Aldrich) at a concentration of 10 μM. Water served as the vehicle in control media. Treatment was carried out for 24 hours unless indicated otherwise."}, "[2]": {"test_system": "BOGA cells", "assay": "Analysis of aberrant chromosomes in metaphase spreads (genomic instability)", "format": "cell-based", "description": "as §1, §2\nCells were treated with the PARPi EB-47 (E8405, Sigma-Aldrich) at a concentration of 1.2 μg/mL for 48 hours. PARPi was dissolved in water, which was used as vehicle control.\n(§3) For determining the extent of genomic instability, cells were irradiated with 2 Gy and analysis of metaphase spreads was performed 24 hours post-irradiation. For assaying formation of IRIF, cells were irradiated with 8 Gy and fixed and processed for immunofluorescence 1 hour, 3 hours, or 6 hours post-irradiation as indicated. For comet assays, cells were irradiated with 8 Gy.\nFollowing all treatments, cells were arrested in mitosis by treatment with colcemid for 4 hours and metaphase spreads prepared by hypotonic swelling in 0.56% KCl, followed by fixation in 3:1 methanol:acetic acid. Cell suspensions were dropped onto slides and stained for 25 minutes in Wright-Giemsa Stain (9380-32, Ricca Chemical Company) and then washed in water. Slides were allowed to dry and were mounted using Eukitt Mounting Reagent and analyzed on an Olympus BX51 light microscope."}, "[3]": {"test_system": "BRCA1-deficient cells", "conditions": "cited from earlier work"}, "[4]": {"test_system": "BOGA cells", "assay": "53BP1 IRIF formation by immunofluorescence", "format": "cell-based", "conditions": "BOGA cells (sh BRCA1), vitamin D 10−7 M from 24 hours prior to 8 Gy, fixed 6 hours post-IR", "description": "(§4) Aliquots of 1 nmol calcitriol were resuspended in 1 mL of bovine growth serum (BGS) and diluted in DMEM with antibiotics and antimycotics to a final concentration of 10% BGS. BGS was used as the vehicle in control media. Treatment was carried out for 24 hours unless indicated otherwise. For determining the extent of genomic instability, cells were irradiated with 2 Gy and analysis of metaphase spreads was performed 24 hours post-irradiation. For assaying formation of IRIF, cells were irradiated with 8 Gy and fixed and processed for immunofluorescence 1 hour, 3 hours, or 6 hours post-irradiation as indicated. For comet assays, cells were irradiated with 8 Gy. Cells were plated on coverslips, irradiated with 8 Gy if indicated, and collected at the varying time intervals. Cells were fixed with 3.7% formaldehyde and 0.2% TritonX-100 in PBS for 10 minutes at RT, followed by 3 washes in PBS. After blocking in 1% BSA and 0.1% Triton X-100 in PBS for 1 hour at 37° C., cells were incubated with 53BP1 (NB100-304, Novus Biologicals) or RAD51 (sc-8349, Santa Cruz) antibodies for 1 hour at 37° C. Three washes in PBS were carried out followed by incubation for 1 hour at 37° C. with appropriate secondary antibodies. Final washes in PBS were carried out and cells were counterstained with DAPI and coverslips were mounted on slides using Vectashield (Vector Labs). […]"}, "[5]": {"test_system": "BOGA cells", "assay": "Neutral comet assay, kinetics of DNA DSBs repair", "format": "cell-based", "conditions": "vitamin D 10−7 M 24 h preirradiation, 8 Gy", "description": "as §3\nNeutral comet assays were performed using CometSlide assay kits (Trevigen). […] Cells were embedded in agarose, lysed, and subjected to neutral single cell gel electrophoresis. The agarose was dehydrated and cells were stained with ethidium bromide to visualize under a fluorescence microscope. Olive comet moment was determined using the program CometScore Version 1.5 (TriTek). Olive moment was calculated by multiplying the percentage of DNA in the tail by the displacement between the means of the head and tail distributions as described (Olive et al., 1990). A total of 25-30 comets were analyzed per sample in each experiment."}, "[6]": {"test_system": "BOGA cells", "assay": "RAD51 IRIF formation by immunofluorescence", "format": "cell-based", "conditions": "vitamin D, 8 Gy", "description": "as §4"}, "[7]": {"conditions": "BRCA1-deficient (BOGA) cells, E64 10 μM"}},
  "data": [
    {"smiles": "CC(C)C[C@H](NC(=O)[C@H]1O[C@@H]1C(=O)O)C(=O)NCCCCN=C(N)N", "note": "[E64]", "values": [
      {"measurement": "53BP1 protein levels (western blot)", "setting": "[1]; [7]", "result": "increased levels"},
      {"measurement": "CTSL levels (western blot)", "setting": "[1]; [7]", "result": "without major changes"},
      {"measurement": "Genomic instability after IR", "setting": "[2]; E64 24 h prior to 2 Gy", "result": "marked increase"}
    ]},
    {"smiles": "O=C1CCC(=O)N1c1cc(Cc2n[nH]c(=O)c3ccccc23)ccc1F", "note": "[KU0058684]", "values": [
      {"measurement": "Clonogenic survival of BRCA1-deficient cells compared to cells expressing BRCA1", "setting": "[3]", "result": "clear reduction"}
    ]},
    {"smiles": "Nc1ncnc2c1ncn2[C@@H]1O[C@H](C(=O)N2CCN(CC(=O)Nc3cccc4c3CNC4=O)CC2)[C@@H](O)[C@H]1O", "note": "[EB-47]", "values": [
      {"measurement": "Genomic instability (metaphases with chromosomal aberrations)", "setting": "[2]; PARPi EB-47 1.2 μg/mL 48 h alone", "result": "does not result in profound genomic instability"}
    ]},
    {"smiles": "CNCc1ccc(-c2[nH]c3cc(F)cc4c3c2CCNC4=O)cc1", "note": "[AG014699]", "values": [
      {"measurement": "Clonogenic survival of BRCA1-deficient cells compared to cells expressing BRCA1", "setting": "[3]", "result": "clear reduction"}
    ]},
    {"smiles": "O=C(c1cc(Cc2n[nH]c(=O)c3ccccc23)ccc1F)N1CCCNCC1", "note": "[KU0058948]", "values": [
      {"measurement": "Clonogenic survival of BRCA1-deficient cells compared to cells expressing BRCA1", "setting": "[3]", "result": "clear reduction"}
    ]},
    {"smiles": "C=C1/C(=C\\C=C2/CCC[C@]3(C)[C@@H]([C@H](C)CCCC(C)(C)O)CC[C@@H]23)C[C@@H](O)C[C@@H]1O", "note": "[vitamin D, 1α,25-dihydroxyvitamin D3]", "values": [
      {"measurement": "% cells with 53BP1 foci", "setting": "[4]", "result": 84, "unit": "%"},
      {"measurement": "% cells with 53BP1 foci", "setting": "[4]; listed as vit D", "result": 84, "unit": "%"},
      {"measurement": "53BP1 protein levels (western blot)", "setting": "[1]; BOGA cells, vitamin D 10−7 M", "result": "stabilizes"},
      {"measurement": "p107 levels (control for inhibition of CTSL activity)", "setting": "[1]; BOGA cells, vitamin D 10−7 M", "result": "stabilization"},
      {"measurement": "Kinetics of DNA DSBs repair (fast phase), Olive comet moment", "setting": "[5]", "result": "rescues"},
      {"measurement": "Extent of chromosomal aberrations in response to PARPi", "setting": "[2]; vitamin D 10−7 M 24 h prior to and with PARPi EB-47 1.2 μg/mL 48 h", "result": "increase"},
      {"measurement": "Percentage of metaphases with aberrant chromosomes after IR", "setting": "[2]; vitamin D 24 h prior to 2 Gy, 24 h post-IR", "result": "significantly increased"},
      {"measurement": "Genomic instability (metaphases with chromosomal aberrations), single agent", "setting": "[2]; vitamin D alone, mock irradiation", "result": "modest increase"},
      {"measurement": "% cells positive for RAD51 IRIF", "setting": "[6]; 1 hour post-IR", "result": 35, "unit": "%"},
      {"measurement": "Extent of RAD51 IRIF at later times post-irradiation", "setting": "[6]; 3 h post-IR", "result": "did not affect"}
    ]}
  ]
}
